One test has as its system Mino cells. In words: Antiproliferative effect, MTS cell viability assay, Mino cells. The class given is cell-based. To be noted: Homo sapiens, MINO, Mino mantle cell lymphoma cells; read-out: IC50 (anti-proliferation) Mino cells. In outline: (§1)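 Absorbance at 490 nm of formazan, formed by metabolically active cells from MTS tetrazolium, served as the viability measure after a 72 h treatment across a 0.001–10 μM concentration series plus untreated control.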
(Formazan colour is commonly taken as a measure of viable cells.)

Another test deals with JeKo-1 cells. The test is described as follows: Antiproliferative effect, MTS cell viability assay, JeKo-1 cells. The conditions noted are these: Homo sapiens; JeKo-1 mantle cell lymphoma cells; read-out: IC50 (anti-proliferation) JeKO-1 cells. The class given is cell-based. The method in brief:
as §1

The next test deals with BTK (Homo sapiens, UniProt Q06187). The test is described as follows: Degradation of BTK protein in Namalwa cells (Western blot; DC50, Dmax). The conditions noted are these: for DC50: read-out: DC50 (BTK degradation), concentration giving 50% reduction of BTK expression level, cell line not given; for Dmax: read-out: Dmax (BTK degradation).

Each structure is given as a SMILES string. Some results are limits rather than exact numbers.

As a reminder, the DC50 is the concentration giving 50% degradation. A word on the Dmax: it is the greatest extent of degradation seen.

BTK, sequence (Q06187 whole entry): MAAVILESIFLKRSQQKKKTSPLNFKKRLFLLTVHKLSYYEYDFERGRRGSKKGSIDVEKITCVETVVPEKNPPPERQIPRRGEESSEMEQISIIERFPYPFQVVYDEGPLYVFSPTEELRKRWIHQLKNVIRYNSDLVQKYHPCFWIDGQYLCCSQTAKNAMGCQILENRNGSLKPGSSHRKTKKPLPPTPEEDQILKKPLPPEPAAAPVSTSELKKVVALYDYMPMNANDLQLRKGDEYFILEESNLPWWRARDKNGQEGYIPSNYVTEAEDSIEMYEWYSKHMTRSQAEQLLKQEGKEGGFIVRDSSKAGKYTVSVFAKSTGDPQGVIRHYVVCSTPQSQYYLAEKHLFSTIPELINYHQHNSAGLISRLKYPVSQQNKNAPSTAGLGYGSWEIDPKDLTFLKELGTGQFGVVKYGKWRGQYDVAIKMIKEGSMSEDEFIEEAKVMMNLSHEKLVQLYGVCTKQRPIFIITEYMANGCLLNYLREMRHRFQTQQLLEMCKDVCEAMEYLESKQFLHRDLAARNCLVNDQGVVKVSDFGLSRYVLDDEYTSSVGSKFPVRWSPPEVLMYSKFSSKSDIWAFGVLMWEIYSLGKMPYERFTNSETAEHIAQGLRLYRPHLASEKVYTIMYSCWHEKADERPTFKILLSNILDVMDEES

As to `Nc1ncnc2c1c(-c1ccc(Oc3ccccc3)cc1)nn2[C@@H]1CCCN(C(=O)NCCN2CCN(c3ccc4c(c3)C(=O)N(C3CCC(=O)NC3=O)C4=O)CC2)C1` (stereo partly drawn) [Compound 524, (3R)-3-(4-amino-3-(4-phenoxyphenyl)-1H-pyrazolo[3,4-d]pyrimidin-1-yl)-N-(2-(4-(2-(2,6-dioxopiperidin-3-yl)-1,3-dioxoisoindolin-5-yl)piperazin-1-yl)ethyl)piperidine-1-carboxamide], the IC50 with Mino cells is less than 1000 nM; in the test with JeKo-1 cells it was 1000 to 10000 nM. Besides, at BTK, the half-maximal degradation concentration (DC50) was less than 10 nM. The Dmax on BTK was more than 90%.
The corresponding values for `Nc1ncnc2c1c(-c1ccc(Oc3ccccc3)cc1)nn2[C@@H]1CCCN(C(=O)CCCN2CCN(c3ccc4c(c3)C(=O)N(C3CCC(=O)NC3=O)C4=O)CC2)C1` (stereo partly drawn) [Compound 525, 5-(4-(4-((R)-3-(4-amino-3-(4-phenoxyphenyl)-1H-pyrazolo[3,4-d]pyrimidin-1-yl)piperidin-1-yl)-4-oxobutyl)piperazin-1-yl)-2-(2,6-dioxopiperidin-3-yl)isoindoline-1,3-dione] are 1000 to 10000 nM, less than 1000 nM, less than 10 nM and more than 90%.
For `Nc1ncnc2c1c(-c1ccc(Oc3ccccc3)cc1)nn2[C@@H]1CCCN(CCNC(=O)N2CCN(c3ccc4c(c3)C(=O)N(C3CCC(=O)NC3=O)C4=O)CC2)C1` (stereo partly drawn) [Compound 526, N-(2-((R)-3-(4-amino-3-(4-phenoxyphenyl)-1H-pyrazolo[3,4-d]pyrimidin-1-yl)piperidin-1-yl)ethyl)-4-(2-(2,6-dioxopiperidin-3-yl)-1,3-dioxoisoindolin-5-yl)piperazine-1-carboxamide], in that order: 1000 to 10000 nM, 1000 to 10000 nM, less than 10 nM and more than 90%.
The corresponding values for `Nc1ncnc2c1c(-c1ccc(Oc3ccccc3)cc1)nn2[C@@H]1CCCN(CCNC(=O)C2CCN(c3ccc4c(c3)C(=O)N(C3CCC(=O)NC3=O)C4=O)CC2)C1` (stereo partly drawn) [Compound 527, N-(2-((R)-3-(4-amino-3-(4-phenoxyphenyl)-1H-pyrazolo[3,4-d]pyrimidin-1-yl)piperidin-1-yl)ethyl)-1-(2-(2,6-dioxopiperidin-3-yl)-1,3-dioxoisoindolin-5-yl)piperidine-4-carboxamide] are less than 1000 nM, 1000 to 10000 nM, 10 to 50 nM and more than 75%.
On to `Nc1ncnc2c1c(-c1ccc(Oc3ccccc3)cc1)nn2[C@@H]1CCCN(C2CCN(CC3CCN(c4ccc(N5CCC(=O)NC5=O)cc4)CC3)CC2)C1` [Compound 528, (R)-1-(4-(4-((3-(4-amino-3-(4-phenoxyphenyl)-1H-pyrazolo[3,4-d]pyrimidin-1-yl)-[1,4′-bipiperidin]-1′-yl)methyl)piperidin-1-yl)phenyl)dihydropyrimidine-2,4(1H,3H)-dione], for which, in the test on Mino cells, the IC50 lay in the range of 1000 to 10000 nM. For the same compound, the IC50 in the test on JeKo-1 cells is 1000 to 10000 nM. Besides, at BTK, the half-maximal degradation concentration (DC50) was in the range of 10 to 50 nM and the Dmax is more than 75%.
Consider `Nc1ncnc2c1c(-c1ccc(Oc3ccccc3)cc1)nn2[C@@H]1CCCN(CC2CCN(c3ccc(N4CCC(=O)NC4=O)cc3)CC2)C1` [Compound 529, (R)-1-(4-(4-((3-(4-amino-3-(4-phenoxyphenyl)-1H-pyrazolo[3,4-d]pyrimidin-1-yl)piperidin-1-yl)methyl)piperidin-1-yl)phenyl)dihydropyrimidine-2,4(1H,3H)-dione], for which the IC50 in the test on Mino cells was more than 10000 nM. Also, the IC50 with JeKo-1 cells is more than 10000 nM. Further, at BTK, the DC50 lay within 10 to 50 nM and the Dmax is more than 50%.
On to `Nc1ncnc2c1c(-c1ccc(Oc3ccccc3)cc1)nn2C1CCN(CC2CC(N3CCN(c4ccc5c(c4)C(=O)N(C4CCC(=O)NC4=O)C5=O)CC3)C2)CC1` (centres unmarked) [Compound 530, 5-(4-(3-((4-(4-amino-3-(4-phenoxyphenyl)-1H-pyrazolo[3,4-d]pyrimidin-1-yl)piperidin-1-yl)methyl)cyclobutyl)piperazin-1-yl)-2-(2,6-dioxopiperidin-3-yl)isoindoline-1,3-dione], for which the IC50 with Mino cells and with JeKo-1 cells was less than 1000 nM in each case. In addition, the DC50 at BTK is less than 10 nM. The Dmax on BTK is more than 90%.
For `Nc1ncnc2c1c(-c1ccc(Oc3ccccc3)cc1)nn2C1CCN(CC2CC(N3CCN(c4ccc5c(c4)CN(C4CCC(=O)NC4=O)C5=O)CC3)C2)CC1` (centres unmarked) [Compound 531, 3-(5-(4-(3-((4-(4-amino-3-(4-phenoxyphenyl)-1H-pyrazolo[3,4-d]pyrimidin-1-yl)piperidin-1-yl)methyl)cyclobutyl)piperazin-1-yl)-1-oxoisoindolin-2-yl)piperidine-2,6-dione], in the test with Mino cells, the IC50 is less than 1000 nM. Also, the IC50 in the test on JeKo-1 cells is less than 1000 nM. Moreover, at BTK, the DC50 was less than 10 nM and the Dmax was more than 90%.
`Nc1ncnc2c1c(-c1ccc(Oc3ccccc3)cc1)nn2C1CCC(CN2CC(N3CCN(c4ccc5c(c4)C(=O)N(C4CCC(=O)NC4=O)C5=O)CC3)C2)CC1` (centres unmarked) [Compound 532, 5-(4-(1-((4-(4-amino-3-(4-phenoxyphenyl)-1H-pyrazolo[3,4-d]pyrimidin-1-yl)cyclohexyl)methyl)azetidin-3-yl)piperazin-1-yl)-2-(2,6-dioxopiperidin-3-yl)isoindoline-1,3-dione]: the IC50 with Mino cells is less than 1000 nM. Further, the IC50 with JeKo-1 cells is less than 1000 nM. Also, at BTK, the DC50 is less than 10 nM and the Dmax was more than 90%.
With `Nc1ncnc2c1c(-c1ccc(Oc3ccccc3)cc1)nn2C1CCC(CN2CC(N3CCN(c4ccc5c(c4)CN(C4CCC(=O)NC4=O)C5=O)CC3)C2)CC1` (centres unmarked) [Compound 533, 3-(5-(4-(1-((4-(4-amino-3-(4-phenoxyphenyl)-1H-pyrazolo[3,4-d]pyrimidin-1-yl)cyclohexyl)methyl)azetidin-3-yl)piperazin-1-yl)-1-oxoisoindolin-2-yl)piperidine-2,6-dione], in the test with Mino cells, the IC50 was less than 1000 nM. Moreover, the IC50 in the test on JeKo-1 cells is less than 1000 nM. At BTK, the half-maximal degradation concentration (DC50) was less than 10 nM and the greatest degradation seen (Dmax) is more than 90%.
Consider `Nc1ncnc2c1c(-c1ccc(Oc3ccccc3)cc1)nn2C1CCN(C2CCN(CCCC#Cc3ccc(N4CCC(=O)NC4=O)cc3)CC2)CC1` [Compound 534, 1-(4-(5-(4-(4-amino-3-(4-phenoxyphenyl)-1H-pyrazolo[3,4-d]pyrimidin-1-yl)-[1,4′-bipiperidin]-1′-yl)pent-1-yn-1-yl)phenyl)dihydropyrimidine-2,4(1H,3H)-dione], for which the IC50 in the test on Mino cells and in the test on JeKo-1 cells was more than 10000 nM throughout. In addition, the DC50 on BTK is more than 50 nM. The Dmax at BTK was more than 50%.
Take `Nc1ncnc2c1c(-c1ccc(Oc3ccccc3)cc1)nn2C1CCN(C2CCN(CCCCC#Cc3ccc(N4CCC(=O)NC4=O)cc3)CC2)CC1` [Compound 535, 1-(4-(6-(4-(4-amino-3-(4-phenoxyphenyl)-1H-pyrazolo[3,4-d]pyrimidin-1-yl)-[1,4′-bipiperidin]-1′-yl)hex-1-yn-1-yl)phenyl)dihydropyrimidine-2,4(1H,3H)-dione]: the IC50 in the test on Mino cells was more than 10000 nM. The IC50 in the test on JeKo-1 cells is more than 10000 nM. Further, on BTK, the DC50 was more than 50 nM and the Dmax is more than 50%.
`Nc1ncnc2c1c(-c1ccc(Oc3ccccc3)cc1)nn2C1CCN(C2CCN(CCCCC#Cc3ccc(N4CCC(=O)NC4=O)cc3)C2)CC1` (centres unmarked) [Compound 536, 1-(4-(6-(3-(4-(4-amino-3-(4-phenoxyphenyl)-1H-pyrazolo[3,4-d]pyrimidin-1-yl)piperidin-1-yl)pyrrolidin-1-yl)hex-1-yn-1-yl)phenyl)dihydropyrimidine-2,4(1H,3H)-dione]: the IC50 with Mino cells and with JeKo-1 cells was more than 10000 nM throughout. Also, the 50% degradation concentration (DC50) at BTK was more than 50 nM. The Dmax on BTK is more than 50%.
Regarding `Nc1ncnc2c1c(-c1ccc(Oc3ccccc3)cc1)nn2C1CCN(C2CCN(CCCC#Cc3ccc(N4CCC(=O)NC4=O)cc3)C2)CC1` (centres unmarked) [Compound 537, 1-(4-(5-(3-(4-(4-amino-3-(4-phenoxyphenyl)-1H-pyrazolo[3,4-d]pyrimidin-1-yl)piperidin-1-yl)pyrrolidin-1-yl)pent-1-yn-1-yl)phenyl)dihydropyrimidine-2,4(1H,3H)-dione], the IC50 with Mino cells is more than 10000 nM. For the same compound, in the test on JeKo-1 cells, the IC50 was more than 10000 nM. Moreover, on BTK, the DC50 is more than 50 nM and the Dmax is more than 50%.
Regarding `Nc1ncnc2c1c(-c1ccc(Oc3ccccc3)cc1)nn2C1CCN(CCCC#Cc2ccc(N3CCC(=O)NC3=O)cc2)CC1` [Compound 538, 1-(4-(5-(4-(4-amino-3-(4-phenoxyphenyl)-1H-pyrazolo[3,4-d]pyrimidin-1-yl)piperidin-1-yl)pent-1-yn-1-yl)phenyl)dihydropyrimidine-2,4(1H,3H)-dione], the IC50 in the test on Mino cells and with JeKo-1 cells was more than 10000 nM each time. On BTK, the DC50 was more than 50 nM. Moreover, the greatest degradation seen (Dmax) at BTK was more than 50%.
`Nc1ncnc2c1c(-c1ccc(Oc3ccccc3)cc1)nn2C1CCN(CCCCC#Cc2ccc(N3CCC(=O)NC3=O)cc2)CC1` [Compound 539, 1-(4-(6-(4-(4-amino-3-(4-phenoxyphenyl)-1H-pyrazolo[3,4-d]pyrimidin-1-yl)piperidin-1-yl)hex-1-yn-1-yl)phenyl)dihydropyrimidine-2,4(1H,3H)-dione]: the IC50 with Mino cells was more than 10000 nM. Further, the IC50 with JeKo-1 cells was more than 10000 nM. For the same compound, on BTK, the DC50 was more than 50 nM and the Dmax is more than 50%.
Regarding `Nc1ncnc2c1c(-c1ccc(Oc3ccccc3)cc1)nn2C1CCN(CCC#Cc2ccc(N3CCC(=O)NC3=O)cc2)CC1` [Compound 540, 1-(4-(4-(4-(4-amino-3-(4-phenoxyphenyl)-1H-pyrazolo[3,4-d]pyrimidin-1-yl)piperidin-1-yl)but-1-yn-1-yl)phenyl)dihydropyrimidine-2,4(1H,3H)-dione], the IC50 in the test on Mino cells is more than 10000 nM. Also, the IC50 in the test on JeKo-1 cells was more than 10000 nM. Further, at BTK, the DC50 was more than 50 nM and the Dmax is more than 50%.

For the origin of these results see patent US12139492B2 (Endotarget Inc., priority 2021, dated 2024).
